Experimental data from patent US11331368B2, “Angiotensin receptor agonists and uses thereof” (Monash University, priority 2017, dated 2022).

What was measured:
[1] = system: male FVB/N mice on high salt diet, liver; assay: High salt (5%) diet intervention model, liver; format: in vivo, mouse; conditions: weeks 5-8; peptides 75 pmol/kg/min s.c.; Cand 2 mg/kg/day, captopril 3 mg/kg/day
[2] = system: male FVB/N mice on high salt diet, heart; assay: High salt (5%) diet intervention model, heart; format: in vivo, mouse
Method in brief: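 Male FVB/N mice fed 5% salt diet for 8 weeks (controls 0.35% NaCl); from week 4, AT2R agonist at 75 pmol/kg/min or saline given subcutaneously by osmotic minipump for 4 weeks on continued high salt. Heart collagen by picrosirius red, % interstitial staining averaged over eight fields; immunofluorescence for fibrosis/inflammation markers.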

Arg-Val-Tyr-Ile-His-β-Pro-Phe [βPro-Ang III]
liver fibrosis (picrosirius red, polarized light) [1]: appears to attenuate | liver steatosis (Oil Red O) [1]: partially reversed | myofibroblast differentiation in heart (α-SMA) ([2]; 75 pmol/kg/min s.c., weeks 5-8): fully reversed the high salt-induced myofibroblast differentiation | cardiac fibrosis (picrosirius red) ([2]; weeks 5-8 of high salt diet, peptides 75 pmol/kg/min s.c. mini-pump, Cand 2 mg/kg/day, captopril 3 mg/kg/day in drinking water): reversed established cardiac fibrosis
